Assays:
[1] = test system: hVSMCs; experiment: mRNA levels in hVSMCs (PAI-1, MMP2, Cx43, tPA, HMOX); format: cell-based, human; conditions: ATV directly added in the medium, 24 hours incubation
Description: FIG. 6: Analysis of transcripts and proteins of hVSMC. Measurements of various mRNAs levels in hVSMCs in presence of ATV directly added in the medium were performed. PAI-1 and MMP2 and Cx43 mRNA levels were decreased whereas tPA and HMOX transcripts were increased after 24 hours incubation.
(§1) To that end, experiments on the influence of the drug on migration and transmigration of the hVSMC and the expression of different mRNAs of proteins involved in the cellular invasivity were performed.

[2] = test system: human vascular smooth muscle cells (hVSMC); experiment: hVSMC viability, MTT test; format: cell-based
[3] = test system: Primary hVSMCs; experiment: hVSMC migration, silicon culture inserts with cell free gap; format: cell-based, human
Description: as §1

SMILES: CC(C)c1c(C(=O)Nc2ccccc2)c(-c2ccccc2)c(-c2ccc(F)cc2)n1CC[C@@H](O)C[C@@H](O)CC(=O)O [ATV, Atorvastatin]
- Cx43 mRNA level [1]: decreased
- HMOX transcript level [1]: increased
- MMP2 mRNA level [1]: decreased
- PAI-1 mRNA level [1]: decreased
- tPA transcript level [1]: increased
- time of viability reduction ([2]; 5 μM ATV): 72 h
- time of viability reduction ([2]; 10 μM ATV): 24 h
- viability of hVSMCs (MTT test) ([2]; 5-10 μM ATV, P<0.05 versus cells without ATV): significantly reduced
- proliferation of human SMC ([2]; primary culture at passage 2-5): decreased
- time at which inhibition of cell migration was observed ([3]; 5 μM ATV directly added to the culture medium): 36 h
- time at which inhibition of cell migration was observed ([3]; 10 μM ATV directly added to the culture medium): 24 h
- hVSMC migration into cell free gap ([3]; 5 and 10 μM ATV): decreased

— patent US10363227B2, “Pharmaceutical formulation for use in the treatment and/or prevention of restenosis” (Centre Hospitalier Universitaire Vaudois (C.H.U.V.), priority 2013, dated 2019)
